Assay results as given in ChEMBL document CHEMBL2406920, “Synthesis, biological evaluation, X-ray molecular structure and molecular docking studies of RGD mimetics containing 6-amino-2,3-dihydroisoindolin-1-one fragment as ligands of integrin αIIbβ₃” (Bioorg Med Chem, 2013).

Target: Integrin alpha-IIb/beta-3 (Homo sapiens, UniProt P05106+P08514)
Test: Inhibition of FITC-labeled fibrinogen binding to integrin alpha2bbeta3 receptor in human platelets by flow cytometry

Chain of Integrin alpha-IIb/beta-3 (P05106 27-788 limits assumed): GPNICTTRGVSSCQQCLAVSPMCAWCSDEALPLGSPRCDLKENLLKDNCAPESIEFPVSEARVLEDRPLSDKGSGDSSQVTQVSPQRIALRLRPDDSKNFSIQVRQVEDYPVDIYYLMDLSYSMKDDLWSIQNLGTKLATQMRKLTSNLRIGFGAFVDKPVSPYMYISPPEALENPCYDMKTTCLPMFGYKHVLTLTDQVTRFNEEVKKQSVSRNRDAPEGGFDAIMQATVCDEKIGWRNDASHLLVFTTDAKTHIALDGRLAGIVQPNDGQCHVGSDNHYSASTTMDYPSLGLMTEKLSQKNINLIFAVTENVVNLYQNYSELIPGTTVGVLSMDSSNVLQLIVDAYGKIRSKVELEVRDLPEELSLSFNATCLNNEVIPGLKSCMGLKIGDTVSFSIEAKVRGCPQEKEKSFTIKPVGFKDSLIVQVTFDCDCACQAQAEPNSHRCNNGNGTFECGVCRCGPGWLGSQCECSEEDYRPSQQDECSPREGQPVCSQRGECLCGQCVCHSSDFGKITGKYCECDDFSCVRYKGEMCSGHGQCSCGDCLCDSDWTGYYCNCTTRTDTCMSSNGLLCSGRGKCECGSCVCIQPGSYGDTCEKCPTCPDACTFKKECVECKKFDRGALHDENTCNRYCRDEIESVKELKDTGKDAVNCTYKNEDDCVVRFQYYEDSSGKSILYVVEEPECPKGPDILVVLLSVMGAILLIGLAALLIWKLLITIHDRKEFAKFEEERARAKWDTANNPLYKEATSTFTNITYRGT
Chain of Integrin alpha-IIb/beta-3 (P08514 32-887 limits assumed): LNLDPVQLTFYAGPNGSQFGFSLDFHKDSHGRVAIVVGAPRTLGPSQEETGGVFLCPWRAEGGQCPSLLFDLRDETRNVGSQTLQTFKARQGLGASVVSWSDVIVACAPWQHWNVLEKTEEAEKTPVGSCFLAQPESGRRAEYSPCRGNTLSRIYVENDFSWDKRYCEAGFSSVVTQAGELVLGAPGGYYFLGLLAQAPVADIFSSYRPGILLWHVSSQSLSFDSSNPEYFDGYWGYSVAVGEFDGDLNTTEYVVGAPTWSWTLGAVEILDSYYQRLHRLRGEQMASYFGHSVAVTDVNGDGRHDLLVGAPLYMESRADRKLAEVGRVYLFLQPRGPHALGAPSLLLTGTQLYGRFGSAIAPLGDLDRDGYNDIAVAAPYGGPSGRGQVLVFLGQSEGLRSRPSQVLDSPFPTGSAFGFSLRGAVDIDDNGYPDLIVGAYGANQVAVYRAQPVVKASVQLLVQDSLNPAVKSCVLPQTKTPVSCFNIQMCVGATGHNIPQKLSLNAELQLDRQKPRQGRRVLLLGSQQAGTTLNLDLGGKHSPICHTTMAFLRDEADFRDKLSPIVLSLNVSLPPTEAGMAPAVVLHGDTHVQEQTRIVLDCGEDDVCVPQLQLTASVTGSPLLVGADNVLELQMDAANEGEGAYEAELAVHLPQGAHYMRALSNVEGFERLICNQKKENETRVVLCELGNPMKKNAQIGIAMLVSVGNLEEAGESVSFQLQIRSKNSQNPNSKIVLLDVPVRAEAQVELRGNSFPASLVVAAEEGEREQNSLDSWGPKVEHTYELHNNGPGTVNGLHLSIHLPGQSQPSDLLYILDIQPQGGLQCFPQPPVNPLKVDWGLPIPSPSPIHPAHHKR
Chain of Integrin alpha-IIb/beta-3 (P08514 891-1039 limits assumed): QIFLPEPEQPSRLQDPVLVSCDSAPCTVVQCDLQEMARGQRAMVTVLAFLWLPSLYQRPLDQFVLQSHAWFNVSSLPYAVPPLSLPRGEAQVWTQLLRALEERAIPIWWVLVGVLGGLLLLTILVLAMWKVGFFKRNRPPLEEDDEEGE

First: O=C(O)CN1Cc2ccc(NC(=O)c3ccc(C4CCNCC4)cc3)cc2C1=O
Second: O=C(O)CCN1Cc2ccc(NC(=O)c3ccc(C4CCNCC4)cc3)cc2C1=O
The IC50 of the first is 40-fold higher: 270 nM for the first, 6.8 nM for the second.

Compared with O=C(O)CN1Cc2ccc(NC(=O)c3ccc4c(c3)CNCC4)cc2C1=O, O=C(O)CCN1Cc2ccc(NC(=O)c3ccc4c(c3)CNCC4)cc2C1=O is 180-fold lower in IC50: 1200 nM for the first, 6.5 nM for the second. The second is the more potent here.

Compared with O=C(O)CCN1Cc2ccc(NC(=O)CCCC3CCNCC3)cc2C1=O, CC(CC(=O)O)N1Cc2ccc(NC(=O)CCCC3CCNCC3)cc2C1=O (racemic) is 64-fold higher in IC50: 5.5 nM for the first, 350 nM for the second.

Going from CC(CC(=O)O)N1Cc2ccc(NC(=O)c3ccc(N4CCNCC4)cc3)cc2C1=O (racemic) to CC(CC(=O)O)N1Cc2ccc(NC(=O)c3ccc4c(c3)CNCC4)cc2C1=O (racemic), the IC50 falls from 37 nM to 6.5 nM (5.7-fold). The second is the more potent here.

Test system: Platelet
Test: Inhibition of ADP-induced human platelet aggregation in platelet-rich plasma by Born's method
Type: functional

Going from O=C(O)CCCN1Cc2ccc(NC(=O)CC3CCNCC3)cc2C1=O to O=C(O)CCN1Cc2ccc(NC(=O)CC3CCNCC3)cc2C1=O, the IC50 rises from 1800 nM to 7400 nM (4.1-fold).

Compared with O=C(O)CN1Cc2ccc(NC(=O)CC3CCNCC3)cc2C1=O, CC(CC(=O)O)N1Cc2ccc(NC(=O)CC3CCNCC3)cc2C1=O (racemic) is 19-fold lower in IC50: 51000 nM for the first, 2700 nM for the second.

O=C(O)CN1Cc2ccc(NC(=O)c3ccc(N4CCNCC4)cc3)cc2C1=O and O=C(O)CCN1Cc2ccc(NC(=O)c3cccc(N4CCNCC4)c3)cc2C1=O are within 1.5-fold of each other in IC50: 3300 nM for the first, 2700 nM for the second.

First: CC(CC(=O)O)N1Cc2ccc(NC(=O)c3cccc(N4CCNCC4)c3)cc2C1=O (racemic)
Second: CCCCS(=O)(=O)N[C@@H](Cc1ccc(OCCCCC2CCNCC2)cc1)C(=O)O [TIROFIBAN]
The IC50 of the first is 1900-fold higher: 62000 nM for the first, 32 nM for the second. The second is the more potent here.
